# In US5843900A (priority 1995, dated 1998):
# Square brackets hold non-standard residues; d marks the D form. Peptide text beside a SMILES is read from it. * marks the point of attachment. X21 = CN1CC[C@]23c4c5ccc(OCCCCCCCCCCCC(=O)*)c4O[C@H]2[C@@H](O)CC[C@H]3[C@H]1C5; Hyp = O=C(O)[C@@H]1C[C@@H](O)CN1; dTic = O=C(O)[C@H]1Cc2ccccc2CN1; 2Thi = N[C@@H](Cc1cccs1)C(=O)O; Gly(N-cHex) = O=C(O)CNC1CCCCC1
# Tests used:
# human BK2 receptor = human BK2 receptor (Homo sapiens, UniProt P30411); experiment: biochemical; assay type: binding
# [1] = tested on: hypotensive response to bradykinin; experiment: Rat Blood Pressure: hypotensive response to bradykinin; assay type: in vivo; settings: at the dose used in the carrageenan test
# Protocol: Male rats were anesthetised with urethane, 1.25 g/kg, and cannulae were placed in the carotid artery and femoral vein for the injection and infusion of compounds and in the femoral artery for the recording of blood pressure. Standard hypotensive responses were obtained to repeated administration of bradykinin, 80 pM. These were repeated in the presence of increasing dose infusions of CP-0840. […] The selectivity of CP-0840 was assessed at a dose of 3 ug/kg/min. […] CP-0840 can be said to be a selective antagonist of bradykinin in vivo in the rat blood pressure assay (FIG. 9).
# [2] = tested on: mustard oil induced neurogenic inflammation in the rat hind paw; settings: in vivo
# [3] = tested on: paw licking following formalin injection; settings: mouse, in vivo
# [4] = tested on: carrageenan induced edema in the rat hind paw; settings: in vivo
# Chain of human BK2 receptor (P30411 28-391): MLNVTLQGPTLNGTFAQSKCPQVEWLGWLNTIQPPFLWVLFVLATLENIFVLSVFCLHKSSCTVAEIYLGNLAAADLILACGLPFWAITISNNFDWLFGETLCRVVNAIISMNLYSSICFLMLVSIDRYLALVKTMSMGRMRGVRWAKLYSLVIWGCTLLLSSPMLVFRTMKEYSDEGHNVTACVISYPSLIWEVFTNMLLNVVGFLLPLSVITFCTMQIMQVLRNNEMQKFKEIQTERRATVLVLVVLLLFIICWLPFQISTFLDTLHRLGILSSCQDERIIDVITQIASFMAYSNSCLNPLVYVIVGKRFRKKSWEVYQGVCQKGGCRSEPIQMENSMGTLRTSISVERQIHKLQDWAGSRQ
Molecule,IC50 (human BK2 receptor) [nM],further results
CN1CC[C@]23c4c5ccc(OCCCCCCCCCCCC(=O)N[C@H](CCCNC(=N)N)C(=O)N[C@@H](CCCNC(=N)N)C(=O)N6CCC[C@H]6C(=O)N6C[C@H](O)C[C@H]6C(=O)NCC(=O)N[C@@H](Cc6cccs6)C(=O)N[C@@H](CO)C(=O)N6Cc7ccccc7C[C@@H]6C(=O)N(CC(=O)N[C@@H](CCCNC(=N)N)C(=O)O)C6CCCCC6)c4O[C@H]2[C@@H](O)CC[C@H]3[C@H]1C5 [CP 695],1.26,–
CN1CC[C@]23c4c5ccc(OCCCCCCCCCCCC(=O)NCCCC[C@H](NC(=O)[C@H](N)CCCNC(=N)N)C(=O)N6CCC[C@H]6C(=O)N6C[C@H](O)C[C@H]6C(=O)NCC(=O)N[C@@H](Cc6cccs6)C(=O)N[C@@H](CO)C(=O)N6Cc7ccccc7C[C@@H]6C(=O)N(CC(=O)N[C@@H](CCCNC(=N)N)C(=O)O)C6CCCCC6)c4O[C@H]2[C@@H](O)CC[C@H]3[C@H]1C5 [CP 723] (H-[dR]K(X21)P[Hyp]G[2Thi]S[dTic][Gly(N-cHex)]R-OH),0.398,–
CN1CC[C@]23c4c5ccc(OCCCCCCCCCCCC(=O)NCCCC[C@H](NC(=O)CNC(=O)[C@@H]6C[C@@H](O)CN6C(=O)[C@@H]6CCCN6C(=O)[C@H](CCCNC(=N)N)NC(=O)[C@H](N)CCCNC(=N)N)C(=O)N[C@@H](CO)C(=O)N6Cc7ccccc7C[C@@H]6C(=O)N(CC(=O)N[C@@H](CCCNC(=N)N)C(=O)O)C6CCCCC6)c4O[C@H]2[C@@H](O)CC[C@H]3[C@H]1C5 [CP 831] (H-[dR]RP[Hyp]GK(X21)S[dTic][Gly(N-cHex)]R-OH),126,–
CN1CC[C@]23c4c5ccc(OCc6ccc(C(=O)NCCC(=O)Nc7ccc(CC(=O)N[C@H](CCCNC(=N)N)C(=O)N[C@@H](CCCNC(=N)N)C(=O)N8CCC[C@H]8C(=O)N8C[C@H](O)C[C@H]8C(=O)NCC(=O)N[C@@H](Cc8cccs8)C(=O)N[C@@H](CO)C(=O)N8Cc9ccccc9C[C@@H]8C(=O)N(CC(=O)N[C@@H](CCCNC(=N)N)C(=O)O)C8CCCCC8)cc7)cc6)c4O[C@H]2[C@@H](O)C=C[C@H]3[C@H]1C5 [CP 836],1.26,–
CN1CC[C@]23c4c5ccc(OCCCCCCCCCCCC(=O)NCCCC[C@H](NC(=O)[C@@H]6CCCN6C(=O)[C@H](CCCNC(=N)N)NC(=O)[C@H](N)CCCNC(=N)N)C(=O)NCC(=O)N[C@@H](Cc6cccs6)C(=O)N[C@@H](CO)C(=O)N6Cc7ccccc7C[C@@H]6C(=O)N(CC(=O)N[C@@H](CCCNC(=N)N)C(=O)O)C6CCCCC6)c4O[C@H]2[C@@H](O)CC[C@H]3[C@H]1C5 [CP 841] (H-[dR]RPK(X21)G[2Thi]S[dTic][Gly(N-cHex)]R-OH),12.6,–
CN1CC[C@]23c4c5ccc(OCCCCCCCCCCCCCCC(=O)N[C@H](CCCNC(=N)N)C(=O)N[C@@H](CCCNC(=N)N)C(=O)N6CCC[C@H]6C(=O)N6C[C@H](O)C[C@H]6C(=O)NCC(=O)N[C@@H](Cc6cccs6)C(=O)N[C@@H](CO)C(=O)N6Cc7ccccc7C[C@@H]6C(=O)N(CC(=O)N[C@@H](CCCNC(=N)N)C(=O)O)C6CCCCC6)c4O[C@H]2[C@@H](O)CC[C@H]3[C@H]1C5 [CP 844],3.16,–
CN1CC[C@]23c4c5ccc(OCCCCCCCCCCCC(=O)NCCCC[C@H](NC(=O)[C@H](CCCNC(=N)N)NC(=O)[C@H](N)CCCNC(=N)N)C(=O)N6C[C@H](O)C[C@H]6C(=O)NCC(=O)N[C@@H](Cc6cccs6)C(=O)N[C@@H](CO)C(=O)N6Cc7ccccc7C[C@@H]6C(=O)N(CC(=O)N[C@@H](CCCNC(=N)N)C(=O)O)C6CCCCC6)c4O[C@H]2[C@@H](O)CC[C@H]3[C@H]1C5 [CP 851] (H-[dR]RK(X21)[Hyp]G[2Thi]S[dTic][Gly(N-cHex)]R-OH),39.8,–
CN1CC[C@]23c4c5ccc(OCCCCCCCCCCCC(=O)NCCCC[C@H](NC(=O)[C@@H]6C[C@@H](O)CN6C(=O)[C@@H]6CCCN6C(=O)[C@H](CCCNC(=N)N)NC(=O)[C@H](N)CCCNC(=N)N)C(=O)N[C@@H](Cc6cccs6)C(=O)N[C@@H](CO)C(=O)N6Cc7ccccc7C[C@@H]6C(=O)N(CC(=O)N[C@@H](CCCNC(=N)N)C(=O)O)C6CCCCC6)c4O[C@H]2[C@@H](O)CC[C@H]3[C@H]1C5 [CP 853] (H-[dR]RP[Hyp]K(X21)[2Thi]S[dTic][Gly(N-cHex)]R-OH),63.1,–
CN1CC[C@]23c4c5ccc(OCc6cccc(C(=O)NCCC(=O)Nc7ccc(CC(=O)N[C@H](CCCNC(=N)N)C(=O)N[C@@H](CCCNC(=N)N)C(=O)N8CCC[C@H]8C(=O)N8C[C@H](O)C[C@H]8C(=O)NCC(=O)N[C@@H](Cc8cccs8)C(=O)N[C@@H](CO)C(=O)N8Cc9ccccc9C[C@@H]8C(=O)N(CC(=O)N[C@@H](CCCNC(=N)N)C(=O)O)C8CCCCC8)cc7)c6)c4O[C@H]2[C@@H](O)C=C[C@H]3[C@H]1C5 [CP 862],1,–
CN1CC[C@]23c4c5ccc(O)c4O[C@H]2[C@@H](OCCCCCCCCCCCC(=O)N[C@H](CCCNC(=N)N)C(=O)N[C@@H](CCCNC(=N)N)C(=O)N2CCC[C@H]2C(=O)N2C[C@H](O)C[C@H]2C(=O)NCC(=O)N[C@@H](Cc2cccs2)C(=O)N[C@@H](CO)C(=O)N2Cc4ccccc4C[C@@H]2C(=O)N(CC(=O)N[C@@H](CCCNC(=N)N)C(=O)O)C2CCCCC2)CC[C@H]3[C@H]1C5 [CP 896],2,–
CN1CC[C@]23c4c5ccc(O)c4O[C@H]2[C@@H](OCCCCCC(=O)N[C@H](CCCNC(=N)N)C(=O)N[C@@H](CCCNC(=N)N)C(=O)N2CCC[C@H]2C(=O)N2C[C@H](O)C[C@H]2C(=O)NCC(=O)N[C@@H](Cc2cccs2)C(=O)N[C@@H](CO)C(=O)N2Cc4ccccc4C[C@@H]2C(=O)N(CC(=O)N[C@@H](CCCNC(=N)N)C(=O)O)C2CCCCC2)CC[C@H]3[C@H]1C5 [CP 900],1.58,–
CN1CC[C@]23c4c5ccc(O)c4O[C@H]2[C@@H](OCCCc2cccc(C(=O)N[C@H](CCCNC(=N)N)C(=O)N[C@@H](CCCNC(=N)N)C(=O)N4CCC[C@H]4C(=O)N4C[C@H](O)C[C@H]4C(=O)NCC(=O)N[C@@H](Cc4cccs4)C(=O)N[C@@H](CO)C(=O)N4Cc6ccccc6C[C@@H]4C(=O)N(CC(=O)N[C@@H](CCCNC(=N)N)C(=O)O)C4CCCCC4)c2)C=C[C@H]3[C@H]1C5 [CP 902],0.398,–
CN1CC[C@]23c4c5ccc(O)c4O[C@H]2[C@@H](OCCCc2ccc(C(=O)N[C@H](CCCNC(=N)N)C(=O)N[C@@H](CCCNC(=N)N)C(=O)N4CCC[C@H]4C(=O)N4C[C@H](O)C[C@H]4C(=O)NCC(=O)N[C@@H](Cc4cccs4)C(=O)N[C@@H](CO)C(=O)N4Cc6ccccc6C[C@@H]4C(=O)N(CC(=O)N[C@@H](CCCNC(=N)N)C(=O)O)C4CCCCC4)cc2)C=C[C@H]3[C@H]1C5 [CP 905],0.501,–
CN1CC[C@]23c4c5ccc(O)c4O[C@H]2[C@@H](OCc2ccc(C(=O)N[C@H](CCCNC(=N)N)C(=O)N[C@@H](CCCNC(=N)N)C(=O)N4CCC[C@H]4C(=O)N4C[C@H](O)C[C@H]4C(=O)NCC(=O)N[C@@H](Cc4cccs4)C(=O)N[C@@H](CO)C(=O)N4Cc6ccccc6C[C@@H]4C(=O)N(CC(=O)N[C@@H](CCCNC(=N)N)C(=O)O)C4CCCCC4)cc2)C=C[C@H]3[C@H]1C5 [CP 906],0.501,–
D-Arg-Arg-Pro-Hyp-Gly-Thi-Ser-D-Tic-NChg-Arg [CP-0597],–,"duration of action against blood pressure responses to bradykinin [1]: greater than 6 h; effect on mustard oil edema response (Evan's blue dye) [2]: without effect; effect on first and second phase responses (paw licking time) [3]: no significant effect; Percentage inhibition of the carrageenan paw edema, 3 h [4]: 66.3; Percentage inhibition of the carrageenan paw edema, 6 h [4]: 0; effect on carrageenan edema response ([4]; sc): significant inhibition from 0-3 h"
